Test results as given in ChEMBL document CHEMBL1201862, “PubChem BioAssay data set” (2004).
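Values below derive from 48-hour exposures of cells grown in 96-well plates, with endpoints linearly interpolated between the two concentrations bracketing the appropriate inhibition level. GI50: concentration for 50% inhibition of growth.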 The source made the active and inactive calls. Rule as the data show it: active = GI50 up to about 1.1 µM and inactive = higher.

Legend:
Assay in all cases: NCI-60 cell line screen, 48 h
M19-MEL = test system: M19-MEL
XF498 = test system: XF498
DLD-1 = test system: DLD-1
DMS-273 = test system: DMS-273
KM-20L2 = test system: KM-20L2
SNB-78 = test system: SNB-78
BT-549 = test system: BT-549
DMS-114 = test system: DMS-114

## C(=N/NC1=NCCN1)/c1c2ccccc2c(/C=N\NC2=NCCN2)c2ccccc12
M19-MEL
  GI50: 0.0757 µM (active)
XF498
  GI50: 0.0828 µM (active)
DLD-1
  GI50: 2.83 µM (inactive)
DMS-273
  GI50: 0.0759 µM (active)
KM-20L2
  GI50: 0.265 µM (active)
SNB-78
  GI50: 0.171 µM (active)

## COC1OC(CO)C(O)C(OC(=O)c2cc(O)c(O)c(O)c2)C1OC(=O)c1cc(O)c(O)c(O)c1 (configuration not stated)
BT-549
  GI50: > 100 µM (inactive)

## O=C1CC(O)c2cscc21 (configuration not stated)
BT-549
  GI50: > 100 µM (inactive)

## N#C[BH2-][n+]1cn(C2CC(OP(=O)(O)OCC3OC(n4ccc(N)nc4=O)CC3O)C(CO)O2)c2nc(N)[nH]c(=O)c21 (configuration not stated)
BT-549
  GI50: > 100 µM (inactive)

## Cc1ccnc2nc(-c3ccc(F)cc3)cc(O)c12
BT-549
  GI50: > 100 µM (inactive)

## CCOC(=O)c1c2cccccc-2nc1Nc1cccc2c(C)ccnc12
BT-549
  GI50: > 10 µM (inactive)

## C=CCOC(=O)c1c(C)[n+]([O-])c2cc(Cl)c(Cl)cc2[n+]1[O-]
BT-549
  GI50: 34.4 µM (inactive)

## Cc1cc(Nc2ccc(S(=O)(=O)O)c3cc(S(=O)(=O)O)cc(S(=O)(=O)O)c23)c2ccccc2n1
BT-549
  GI50: > 100 µM (inactive)

## COc1ccc(C2(C3c4cc(OC)c(OC)cc4CCN3C)SCCCS2)cc1O (configuration not stated)
BT-549
  GI50: > 100 µM (inactive)

## O=C1/C(=C\c2cccc(Oc3ccccc3)c2)S(=O)(=O)C(c2ccccc2)N1c1cc(Cl)ccc1Cl (configuration not stated)
BT-549
  GI50: 18 µM (inactive)

## COc1cc(/C=C/C(=O)OCC23CC[C@@]4(C(=O)O)CCC(C)[C@H](C)C4C2=CCC2[C@@]4(C)CC[C@H](O)C(C)(C)C4CC[C@]23C)ccc1O (some centres not stated)
BT-549
  GI50: 19.5 µM (inactive)

## FC(F)(F)c1ccc2c(c1)nc(Cc1ccc(Cl)cc1)n2CC1CCCN2CCCCC12 (configuration not stated)
BT-549
  GI50: 11.5 µM (inactive)

## O=C(c1ccccc1)c1c(CC(O)c2ccncc2)n(C(=O)c2ccccc2)c2ccccc12 (configuration not stated)
M19-MEL
  GI50: 17.9 µM (inactive)
DLD-1
  GI50: 26.2 µM (inactive)
DMS-273
  GI50: 17.9 µM (inactive)
KM-20L2
  GI50: 17.7 µM (inactive)
DMS-114
  GI50: 16.9 µM (inactive)

## Nc1ncnc2c(C3OC(CO)C(O)C3O)n[nH]c12 (configuration not stated)
M19-MEL
  GI50: 2.42 µM (inactive)
XF498
  GI50: 0.158 µM (active)
DLD-1
  GI50: 0.0575 µM (active)
DMS-273
  GI50: 0.0826 µM (active)
KM-20L2
  GI50: 0.229 µM (active)
DMS-114
  GI50: 0.208 µM (active)
SNB-78
  GI50: 0.53 µM (active)

## O=C(N/N=C\c1ccc([N+](=O)[O-])cc1)Nc1ccccc1
BT-549
  GI50: > 100 µM (inactive)

## CCC1=CC2CN3CCc4c([nH]c5ccccc45)C(C(=O)OC)(C2)C13 (configuration not stated)
M19-MEL
  GI50: 42.6 µM (inactive)
XF498
  GI50: 35.7 µM (inactive)
DLD-1
  GI50: 45.9 µM (inactive)
DMS-273
  GI50: 48.6 µM (inactive)
KM-20L2
  GI50: 1.22 µM (inactive)
DMS-114
  GI50: 39.4 µM (inactive)
SNB-78
  GI50: 64.7 µM (inactive)

## O=Cc1cc2c(cc1-c1cc3c(cc1C=O)OCO3)OCO2
M19-MEL
  GI50: 56.8 µM (inactive)
DLD-1
  GI50: 50.4 µM (inactive)
DMS-273
  GI50: 64.3 µM (inactive)
KM-20L2
  GI50: > 100 µM (inactive)
DMS-114
  GI50: > 100 µM (inactive)
SNB-78
  GI50: > 100 µM (inactive)

## CN1Cc2ccccc2C2(COc3ccccc3C2=O)C1 (configuration not stated)
M19-MEL
  GI50: > 100 µM (inactive)
DLD-1
  GI50: 92.9 µM (inactive)
DMS-273
  GI50: > 100 µM (inactive)
KM-20L2
  GI50: > 100 µM (inactive)
DMS-114
  GI50: > 100 µM (inactive)
SNB-78
  GI50: > 100 µM (inactive)

## c1ccc(COC2C3COC(O3)C(OCc3ccccc3)C2OCc2ccccc2)cc1 (configuration not stated)
BT-549
  GI50: > 100 µM (inactive)

## Cc1cc(C#N)c(Nc2ccc(F)cc2[N+](=O)[O-])s1
BT-549
  GI50: 24.4 µM (inactive)

## COc1ccc(-c2cc(O)c3cccnc3n2)cc1
BT-549
  GI50: 77.4 µM (inactive)

## C/C(=N/NC(=S)Nc1ccccc1C)c1ccccn1
BT-549
  GI50: 3.14 µM (inactive)

## Nc1nc(Cl)cc(NCCO)n1
BT-549
  GI50: > 100 µM (inactive)

## CN1CCC(CNC(=O)CCCCCCCCC(=O)NCC2(c3ccccc3)CCN(C)CC2)(c2ccccc2)CC1
BT-549
  GI50: > 100 µM (inactive)

## Cc1cccc(Nc2nc3ccccc3nc2NS(=O)(=O)c2ccc(N)cc2)c1
BT-549
  GI50: 9.42 µM (inactive)

## Cc1cn(C2CC(n3cc(Cn4cc(I)c(=O)[nH]c4=O)nn3)C(CO)O2)c(=O)[nH]c1=O (configuration not stated)
BT-549
  GI50: > 100 µM (inactive)

## CC1=C(Cl)C=CP(=O)(Oc2ccccc2)C1 (configuration not stated)
XF498
  GI50: 57.7 µM (inactive)
DMS-273
  GI50: 27.5 µM (inactive)
KM-20L2
  GI50: > 100 µM (inactive)
DMS-114
  GI50: 25.4 µM (inactive)
SNB-78
  GI50: 41.1 µM (inactive)
